In patent US20240108684A1, “DOSING REGIMENS FOR TREATMENT OF FUNGAL INFECTIONS” (priority 2016, published 2024):
Read-outs that look alike come from different tables or passages of the source. *1 amine or outer side, *2 acyl side, *3 side chain or, on linkers, in order; H or OH if unused. Where a SMILES comes first, the peptide text is derived from it. Bridges are numbered along the chain shown (N, C = ends). [ ]: non-standard residue; d: D form. The star is where a group is joined. Orn(4R-OH,5R-OCH2CH2NMe3+) = C[N+](C)(C)CCO[C@@H](N[*:3])[C@H](O)C[C@H](N[*:1])C(=O)[*:2]; pTerphenylCO(4''-OnC5H11) = CCCCCOc1ccc(-c2ccc(-c3ccc(C(=O)*)cc3)cc2)cc1; hTyr(3S-OH,4S-OH) = N[C@H](C(=O)O)[C@H](O)[C@@H](O)c1ccc(O)cc1; Pro(3S-OH,4S-Me) = C[C@H]1CN[C@H](C(=O)O)[C@H]1O; Hyp = O=C(O)[C@@H]1C[C@@H](O)CN1

Assays:
C. glabrata = assay: Mutant prevention concentration (MPC); format: cell-based, Candida glabrata
Excerpt: As used herein, the term “mutant prevention concentration” or “MPC” refers to the concentration of a drug sufficient to suppress the development of all but very rare spontaneous mutants. The range of drug concentrations between the MIC and MPC represents a mutant selection window wherein de novo mutants are most likely to occur. Therapeutic regimens that maximize the duration of drug concentrations in excess of the MPC thereby minimize the potential for resistance development during the course of therapy.
Selection of resistance strains in vivo predominantly occurs over a range of drug concentrations falling between the MIC and MPC values. Dosing paradigms that result in plasma drug concentrations in excess of the MPC are therefore more desirable and effective in preventing the development of de novo mutants during the course of therapy (see, e.g., Drlica et al., J. Antimicrob. Chemother. 52:11-17, 2003). Currently approved treatment regimens for caspofungin, micafungin, and anidulafungin involve once-daily dosing at levels such that the Cmax is unlikely to be equivalent to or exceed the MPC at any point during treatment.

[1] = Single dose plasma PK after IP doses; details: mouse, 64 mg/kg
[2] = Multiple ascending dose IV study in healthy adult subjects (safety, PK); format: in vivo, human; details: for Accumulation Ratio AUC0-168 / Accumulation Ratio Cmax: last/first dose; for Cmax / AUC(0-t): human, plasma, intravenous; for AUC(0-t): read-out: AUC0-168
Procedure: A second study of CD101 administered by IV injection to healthy adult subjects was also performed. In this study, subjects in 3 cohorts of 8 subjects (6 active, 2 placebo) each were randomized to receive multiple IV doses of CD101 or placebo (normal saline) infused over 60 (±5) minutes. Dose levels of CD101 assessed follow an ascending multiple-dose regimen (100 mg×2 doses, 200 mg×2 doses, or 400 mg×3 doses).
Pharmacokinetics were determined by analyzing plasma and urine samples for concentration of CD101 obtained from subjects who received CD101 in each cohort at various time points after administration of CD101.

[3] = test system: Aspergillus fumigatus (ATCC 13073); assay: Neutropenic mouse model of aspergillosis, survival; format: in vivo, mice; details: 2 mg/kg IV or IP one dose; 10 days; P<0.05
C. auris isolates = assay: Candida auris antifungal susceptibility testing (AFST), CLSI M27-A3; format: cell-based
Murine protein binding = format: in vitro ADME; details: used to generate free-drug plasma concentrations
[4] = Pharmacokinetic study, single IP dose; format: in vivo, ICR mice; details: 1 to 16 mg/kg IP
Procedure: Pharmacokinetic Study. Healthy female ICR mice were given a single dose of CD101 via intraperitoneal (IP) injection. The following doses, at three mice per dose, were studied: 1, 4, and 16 mg/kg.

C. albicans = assay: MIC by CLSI standards; details: Candida albicans
[5] = test system: azole-resistant C. albicans R357 strain; assay: MIC and CLSI susceptibility, azole-resistant C. albicans R357; format: cell-based, Candida albicans; details: Candida albicans
C.albicans (Strain R303) = assay: MIC of the infecting strain R303; details: Candida albicans
[6] = 100 mg x2, 200 mg x2 or 400 mg x3 doses IV

Which results are given for `CCCCCOc1ccc(-c2ccc(-c3ccc(C(=O)N[C@H]4C[C@@H](O)[C@@H](OCC[N+](C)(C)C)NC(=O)[C@@H]5[C@@H](O)[C@@H](C)CN5C(=O)[C@H]([C@@H](C)O)NC(=O)[C@H]([C@H](O)[C@@H](O)c5ccc(O)cc5)NC(=O)[C@@H]5C[C@@H](O)CN5C(=O)[C@H]([C@@H](C)O)NC4=O)cc3)cc2)cc1` [CD101] ({pTerphenylCO(4''-OnC5H11)}-[Orn(4R-OH,5R-OCH2CH2NMe3+)]T[Hyp][hTyr(3S-OH,4S-OH)]T[Pro(3S-OH,4S-Me)]; lactam 1-C)?
MPC (C. glabrata): 16 µg/mL; AUC(0-inf) [1]: 93 to 4050 µg·h/mL; Cmax [1]: 2600 to 77000 ng/mL; half-life [1]: 28 to 41 h; Accumulation Ratio AUC0-168 ([2]; 100 mg (Day 1/Day 8)): 1.30; Accumulation Ratio Cmax ([2]; 100 mg (Day 1/Day 8)): 1.14; Drug-related AEs from laboratory abnormalities [2, 6]: no drug-related AEs resulting from clinically significant hematology or clinical chemistry laboratory abnormalities at any dose; ECG, vital signs, physical exam [2, 6]: no safety issues related to ECGs, vital signs, or physical exam findings; Serious and severe adverse events [2, 6]: no SAEs or severe AEs; Severity and resolution of AEs [2, 6]: majority of AEs were mild, and all related AEs completely resolved by the end of the study; Accumulation Ratio AUC0-168 ([2]; 200 mg (Day 1/Day 8)): 1.43; Accumulation Ratio Cmax ([2]; 200 mg (Day 1/Day 8)): 1.17; Accumulation Ratio AUC0-168 ([2]; 400 mg (Day 1/Day 8/Day 15)): 1.55; Accumulation Ratio Cmax ([2]; 400 mg (Day 1/Day 8/Day 15)): 1.34; Cmax ([2]; 100 mg, 100 mg weekly, Day 1): 5670 ng/mL; AUC(0-t) ([2]; 100 mg, 100 mg weekly, Day 1): 299 µg·h/mL; Cmax ([2]; 100 mg, 100 mg weekly, Day 8): 6490 ng/mL; AUC(0-t) ([2]; 100 mg, 100 mg weekly, Day 8): 390 µg·h/mL; Cmax ([2]; 200 mg, 200 mg weekly, Day 1): 10600 ng/mL; AUC(0-t) ([2]; 200 mg, 200 mg weekly, Day 1): 570 µg·h/mL; Cmax ([2]; 200 mg, 200 mg weekly, Day 8): 12400 ng/mL; AUC(0-t) ([2]; 200 mg, 200 mg weekly, Day 8): 813 µg·h/mL; Cmax ([2]; 400 mg, 400 mg weekly, Day 1): 22700 ng/mL; AUC(0-t) ([2]; 400 mg, 400 mg weekly, Day 1): 1190 µg·h/mL; Cmax ([2]; 400 mg, 400 mg weekly, Day 15): 30500 ng/mL; AUC(0-t) ([2]; 400 mg, 400 mg weekly, Day 15): 1840 µg·h/mL; Safety and tolerability ([2]; multiple doses up to 400 mg): safe and well tolerated; Infusion reactions ([2]; primarily 400 mg cohort, most common with third dose): Four subjects in the CD101 group experienced mild, transient infusion reactions; Survival versus vehicle [3]: significantly longer survival than vehicle; Activity in comparison (C. auris isolates; 38 C. auris isolates): activity similar to MICA; Breakthrough at 48 h (C. auris isolates; C. auris strains): not with CD101; Number of resistant C. auris isolates (C. auris isolates; of 38 isolates): 4; Murine protein binding value (Murine protein binding): 99.1%; Linearity of PK [4]: linear PK; MIC (C. albicans; C. albicans 98-17): 0.06 µg/mL; MIC (C. albicans; C. albicans 98-210): 0.016 µg/mL; MIC (C. albicans; C. albicans 580): 0.016 µg/mL; MIC (C. albicans; C. albicans K-1): 0.008 µg/mL; MIC (C. albicans; read-out: MICs, 4 C. albicans strains): 0.008 to 0.06 µg/mL; MIC [5]: 0.125 µg/mL; MIC (C.albicans (Strain R303)): 0.125 µg/mL
